Test results taken from paper PMC10935199, “Rosmarinic Acid Present in Lepechinia floribunda and Lepechinia meyenii as a Potent Inhibitor of the Adenylyl Cyclase gNC1 from Giardia lamblia” (Plants, 2024).

Target: T1, adenylyl cyclase gNC1 (Giardia nucleotidyl cyclase 1)
T1 construct: catalytic domain of gNC1 (construct gNC1-301)
Assay: adenylyl cyclase assay on enriched gNC1-301, cAMP by radiobinding protein assay; ATP kinetics
Format: biochemical, Giardia intestinalis

For O=C(/C=C/c1ccc(O)c(O)c1)O[C@H](Cc1ccc(O)c(O)c1)C(=O)O [compound 3, rosmarinic acid], the IC50 was 10.1 ± 1.3 µM.
